Tests used:
Assay type in all cases: cell-based
[1] = tested on: human melanoma YUMAC cells; experiment: Cell proliferation, YUMAC (Example 4); settings: compound in 2-hydroxypropyl-β-cyclodextrin
Description: (§1) Human ovary cancer A2780 cells lines were seeded at a density of 5000 cells/well, human melanoma A375 cells were plated at a density of 2,500 cells/well, human colon carcinoma HCT15 cells were plated at a density of 3,000 cells/well, human prostate carcinoma PC3 cells were plated at a density of 1,500 cells/well, human breast carcinoma MCF7 cells were plated at a density of 5,000 cells/well, human breast carcinoma MDA MB 468 cells were plated at a density of 6,000 cells/well, human myeloma U266, RPMI8226 and CAG cells were plated at a density of 10,000 cells/well. All cells were plated in 96-well plates in 90 μl growth medium containing 10% FCS, 100 units/ml penicillin and 100 μg/ml streptomycin. Compound 3 was added a day later in […] of 1% DMSO in DDW to obtain final concentrations of 0, 0.1, 0.3, 1, 3, and 10 μM. The final concentration of DMSO (0.1% DMSO) was kept constant in all samples. Following exposure of the cells to compound 3 for 72 hours at 37° C., adhered cells were fixed in 0.5% gluteraldehyde in medium for 10 min, washed three times with DDW, once with 0.1M sodium borate buffer pH 8.5 and stained with 1% methylene blue dissolved in 0.1M borate buffer solution for 60 min. Excess dye was washed out and cell-bound dye was eluted with 200 μl/well of 0.1M HCl. The optical density values were read at 630 nm in ELISA plate reader. Non-adhered cells were exposed to WST-1 reagent for 5 hours following 72 hours treatment with the inhibitors, and optical density values were read at 630 nm in ELISA plate reader. The data was analyzed in Microsoft Excel, using the vehicle control as 100% proliferation. The assays were performed in triplicates. The values of IC50 were derived from the dose-dependent growth curves obtained.
Cell proliferation assay was performed as described in Example 2. The following cell line were plated in 96-well plates in 90 μl growth medium containing 10% FCS, 100 units/ml penicillin and 100 μg/ml streptomycin: human ovary cancer A2780 cells (4500 cells/well), human melanoma A375 (1500 cells/well) and YUMAC (2500 cells/well) cells, human colon carcinoma HCT15 (3000 cells/well) and HCT116 (2000 cells/well) cells, human prostate carcinoma PC3 (3000 cells/well), PC3MM2 (3500 cells/well) and DU145 (300 cells/well) cells, human hepatocarcinoma HepG2 (3000 cells/well), human Ewing sarcoma SK-ES-1 (4,500 cells/well), human glioblastoma U138MG (2,000 cells/well), human breast cancer T47D (4000 cells/well) and MDA-MB-468 (6000 cells/well) cells, human small cell lung carcinoma NCI-H1975 (5000 cells/well) cells, human osteosarcoma Saos-2 (5000 cells/well) cells, human pancreatic cancer ASPC (2500 cells/well) cells, human bladder carcinoma T24P (1000 cells/well) cells, human gastric cancer NCI-N87 (5000 cells/well) cells, human lymphoma KARPAS (5,000 cells/well) cells, human leukemia K562 (5,000 cells/well) cells and human multiple myeloma MM1S (10,000 cells/well), U266 (10,000 cells/well) and CAG (5,000 cells/well). Compounds 2-5 and 7-8 were added a day later in 10 μl of 0.7% 2-hydroxypropyl-β-cyclodextrin to obtain final concentrations of 0, 0.1, 0.3, 1, 3 and 10 μM.
Compounds 2-5 and 7-8 of the present invention were tested for their inhibitory potential in cell proliferation assay. […]

[2] = tested on: human prostate carcinoma PC3MM2 cells; experiment: Cell proliferation, PC3MM2 (Example 4); settings: PC3MM2, prostate cancer, compound in 2-hydroxypropyl-β-cyclodextrin
Description: as §1
(§2) Cell proliferation assay was performed as described in Example 2. […]

[3] = tested on: human hepatocarcinoma HepG2 cells; experiment: Cell proliferation, HepG2 (Example 4); settings: compound in 2-hydroxypropyl-β-cyclodextrin
Description: as §1, §2

[4] = tested on: human breast cancer MDA-MB-468 cells; experiment: Cell proliferation, MDA-MB-468 (Example 4); settings: MDA-MB-468, breast cancer, compound in 2-hydroxypropyl-β-cyclodextrin
Description: as §1, §2

human NCI-H1975 cells = experiment: Cell proliferation, NCI-H1975 (Example 4); settings: NCI-H1975, SCLC, compound in 2-hydroxypropyl-β-cyclodextrin
Description: as §1, §2

[5] = tested on: human lymphoma KARPAS cells; experiment: Cell proliferation, KARPAS (Example 4); settings: compound in 2-hydroxypropyl-β-cyclodextrin
Description: as §1, §2

[6] = tested on: human multiple myeloma CAG cells; experiment: Cell proliferation, CAG (Example 4); settings: compound in 2-hydroxypropyl-β-cyclodextrin
Description: as §1, §2

[7] = tested on: human multiple myeloma MM1S cells; experiment: Cytotoxicity of combination with Velcade in MM1S cells (CellTiter Glo); settings: for α/a+β/b (synergism if <1): combination with Velcade, three days; for combined effect with Velcade versus Bliss additive effect: compound 0.1 or 0.2 M (so in the source), 1 and 1.5 nM Velcade, FIGS. 8 and 9
Description: Human multiple myeloma MM1S cells were plated at a density of 10,000 cells/well in 96-well plates in 90 μl growth medium containing 10% FCS, 100 units/ml penicillin and 100 μg/ml streptomycin. Velcade® (i.e. bortezomib or PS-341) was obtained from LC Laboratories. Compounds 3 and 5 were added a day later in 5 μl of 0.7% 2-hydroxypropyl-β-cyclodextrin in DDW to the multiple myeloma cell plates to obtain final concentrations of […]. Velcade® was added in 5 μl of 1% DMSO to obtain final concentrations of 0, 0.5, 1 and 1.5 nM. Three days later CellTiter Glo reagent (100 μl/well) was added to the medium (1:1), shaked, and following 10 min incubation transferred to 96-well white plates and read in a Luminometer. The data was analyzed in Microsoft Excel, using the vehicle control as 0% cytotoxicity. The assays were performed in triplicates. Cytotoxicity (%) was calculated as follows: [(absorbance of control cells—absorbance of drug-treated cells)/absorbance of control cells]×100. In FIGS. 8 and 9 the Bliss additivism model (Cardone et al. Science (1998), 282: 1318-1321) was used to calculate the combined effect using the following formula: Ebliss=EA+EB−EA×EB, where EA and EB are the fractional inhibitions obtained by drug A alone and drug B alone at specific concentrations. […] The synergic effect was calculated in an additional method in which the existence of α/a+β/b<1 was tested (a is the IC50 of drug A in the absence of drug B, α is the IC50 of drug A in the presence of drug B, b is the IC50 of drug B in the absence of drug A, β is the IC50 of drug B in the presence of drug A).

SMILES	IC50 [1]	IC50 [2]	IC50 [3]	IC50 [4]	IC50 (human NCI-H1975 cells)	IC50 [5]	IC50 [6]	α/a+β/b (synergism if <1) [7]	combined effect with Velcade versus Bliss additive effect [7]
O=c1c(O)cc2cnc(/C=C/c3cc(O)c(O)c(Br)c3)sc-2c1O [Compound 3]	300 nM	2300 nM	900 nM	4700 nM	1000 nM	500 nM	900 nM	0.7	strong synergistic effect
O=c1c(O)cc2cnc(/C=C/c3ccc(O)c(O)c3Br)sc-2c1O [Compound 5]	200 nM	1800 nM	1600 nM	2900 nM	800 nM	900 nM	700 nM	0.6	strong synergistic effect

— patent US9073880B2, “2-(2-phenylethenyl) 1,3-benzodiazepine derivatives useful for the treatment of cancer” (Yissum Research Development Company of the Hebrew …, priority 2010, dated 2015)
